US6822146B2, “Sulfonylurea-tolerant sunflower line M7” (priority 2000, dated 2004)

Legend:
[1] = tested on: Homozygous resistant inbred lines, BC3-M4M12 (I), BC3-M4M11 (J) and BC3-M4M7 (K); test: Test A summary, homozygous resistant inbred lines; settings: in vivo
Summary of the method: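 Field-grown sunflower lines received broadcast post-emergence sulfonylurea herbicides at the 6-leaf stage, at European registered use rates, in four randomized replicates; all but metsulfuron-methyl included Citowet non-ionic surfactant at 0.25% v/v. Peak crop injury was scored visually as % phytotoxicity (0% none, 100% all plants destroyed).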

[2] = tested on: BC4-M5M12 × PHA155 hybrid; test: Test E injury to sunflower hybrid; format: in vivo
Method: Based on the results from Test D, a modified protocol was developed to include three timings of post-emergence treatment. The hybrid BC4-M5M12 (female parent)×PHA155 restorer line (male parent) described in Test C was used in this test. Various herbicide programs were tested using three replications. […] Seed coatings of these formulated herbicides were applied to 6 kg of seeds in such amount that considering the distribution of the coated seeds in each pot, the herbicide active ingredient (a.i.) application rates per hectare were as indicated.
The treatments were applied similar to the methods described for Test D. Pre-emergence applications were broadcast only, not soil incorporated. For pre-emergence application, the pots were sprayed using the high rates of the herbicides two days after sowing the sunflower seeds. Post-emergence treatments were applied at the 4-6 leaf stage of sunflower (corresponding to early stage of Orobanche attachment; identified as “T1”), the 6-8 leaf stage of sunflower (corresponding to the mid stage of Orobanche attachment; nodules <5 mm diameter; identified as “T2”) and 8-12 leaf stage of sunflower (corresponding to late stage of Orobanche attachment; identified as “T3”). The mid-stage applications included the high as well as low application rates of each herbicide.
For comparison were also included in this test other acetolactate synthase-inhibiting herbicides reported in the literature as giving good weed control of Orobanche (L. García-Torres et al., Weed Research 1994, 34, 395-402; L. García-Torres et al., Weed Technology 1995, 9, 819-824; J. Hershenhorn et al., Weed Technology 1998, 12, 108-114).

Chenopodium album = test: Test H weed control, field plots; format: in vivo; settings: 36 days after treatment; g a.i./ha: tribenuron-methyl 22.5, metsulfuron-methyl 6, ethametsulfuron-methyl 16, imazapyr isopropylamine salt 15, aclonifen 1200
Source text: (§1) Field plots (2 m×5 m) were tilled to remove weed cover and then seeded in rows with the following weeds: Capsella bursa pastoris, Atriplex patula, Chenopodium album, Stellaria media, Mecurialis annua, Polygonum persicaria, Amaranthus retroflexus, Polygonum convolvulus, Polygonum aviculare, Viola arvensis, Matricaria inodora, Anagallis arvensis, Sinapis arvensis, Setaria viridis, Solanum nigrum and Echinochloa crusgalli. After 21 days from sowing, at which time the weeds had reached the 2- to 6-leaf stage, herbicide treatments were applied to the plots according to a complete randomized block design, with each herbicide treatment triply replicated. The herbicides were sprayed using standard flat fan nozzles moved perpendicular to the sown lines using water spray volumes of about 296 L/ha.
(§2) Assessments of weed control were made by visual inspection 36 days after herbicide treatment. A visual rating system was used based on a percentage scale from 0 to 100% compared to an adjacent untreated control plot. On this scale 0 represents no visual differences relative to an untreated control and 100 represents complete control of the given weed species.

Stellaria media = test: Test H weed control, field plots; format: in vivo; settings: 36 days after treatment; g a.i./ha: tribenuron-methyl 22.5, metsulfuron-methyl 6, ethametsulfuron-methyl 16, imazapyr isopropylamine salt 15, aclonifen 1200
Source text: as §1, §2

Amaranthus retroflexus = test: Test H weed control, field plots; format: in vivo; design: concentration or dose not given beside the values; settings: 36 days after treatment; g a.i./ha: tribenuron-methyl 22.5, metsulfuron-methyl 6, ethametsulfuron-methyl 16, imazapyr isopropylamine salt 15, aclonifen 1200
Source text: as §1, §2

Anagallis arvensis = test: Test H weed control, field plots; format: in vivo; design: concentration or dose not given beside the values; settings: 36 days after treatment; g a.i./ha: tribenuron-methyl 22.5, metsulfuron-methyl 6, ethametsulfuron-methyl 16, imazapyr isopropylamine salt 15, aclonifen 1200
Source text: as §1, §2

Atriplex patula = test: Test H weed control, field plots; format: in vivo; design: concentration or dose not given beside the values; settings: 36 days after treatment; g a.i./ha: tribenuron-methyl 22.5, metsulfuron-methyl 6, ethametsulfuron-methyl 16, imazapyr isopropylamine salt 15, aclonifen 1200
Source text: as §1, §2

Capsella bursa pastoris = test: Test H weed control, field plots; format: in vivo; design: concentration or dose not given beside the values; settings: 36 days after treatment; g a.i./ha: tribenuron-methyl 22.5, metsulfuron-methyl 6, ethametsulfuron-methyl 16, imazapyr isopropylamine salt 15, aclonifen 1200
Source text: as §1, §2

Echinochloa crus-galli = test: Test H weed control, field plots; format: in vivo; design: concentration or dose not given beside the values; settings: 36 days after treatment; g a.i./ha: tribenuron-methyl 22.5, metsulfuron-methyl 6, ethametsulfuron-methyl 16, imazapyr isopropylamine salt 15, aclonifen 1200
Source text: as §1, §2

Matricaria inodora = test: Test H weed control, field plots; format: in vivo; design: concentration or dose not given beside the values; settings: 36 days after treatment; g a.i./ha: tribenuron-methyl 22.5, metsulfuron-methyl 6, ethametsulfuron-methyl 16, imazapyr isopropylamine salt 15, aclonifen 1200
Source text: as §1, §2

Mercurialis annua = test: Test H weed control, field plots; format: in vivo; design: concentration or dose not given beside the values; settings: 36 days after treatment; g a.i./ha: tribenuron-methyl 22.5, metsulfuron-methyl 6, ethametsulfuron-methyl 16, imazapyr isopropylamine salt 15, aclonifen 1200
Source text: as §1, §2

Polygonum aviculare = test: Test H weed control, field plots; format: in vivo; design: concentration or dose not given beside the values; settings: 36 days after treatment; g a.i./ha: tribenuron-methyl 22.5, metsulfuron-methyl 6, ethametsulfuron-methyl 16, imazapyr isopropylamine salt 15, aclonifen 1200
Source text: as §1, §2

Polygonum convolvulus = test: Test H weed control, field plots; format: in vivo; design: concentration or dose not given beside the values; settings: 36 days after treatment; g a.i./ha: tribenuron-methyl 22.5, metsulfuron-methyl 6, ethametsulfuron-methyl 16, imazapyr isopropylamine salt 15, aclonifen 1200
Source text: as §1, §2

Polygonum persicaria = test: Test H weed control, field plots; format: in vivo; design: concentration or dose not given beside the values; settings: 36 days after treatment; g a.i./ha: tribenuron-methyl 22.5, metsulfuron-methyl 6, ethametsulfuron-methyl 16, imazapyr isopropylamine salt 15, aclonifen 1200
Source text: as §1, §2

Setaria viridis = test: Test H weed control, field plots; format: in vivo; design: concentration or dose not given beside the values; settings: 36 days after treatment; g a.i./ha: tribenuron-methyl 22.5, metsulfuron-methyl 6, ethametsulfuron-methyl 16, imazapyr isopropylamine salt 15, aclonifen 1200
Source text: as §1, §2

Sinapis arvensis = test: Test H weed control, field plots; format: in vivo; design: concentration or dose not given beside the values; settings: 36 days after treatment; g a.i./ha: tribenuron-methyl 22.5, metsulfuron-methyl 6, ethametsulfuron-methyl 16, imazapyr isopropylamine salt 15, aclonifen 1200
Source text: as §1, §2

Solanum nigrum = test: Test H weed control, field plots; format: in vivo; design: concentration or dose not given beside the values; settings: 36 days after treatment; g a.i./ha: tribenuron-methyl 22.5, metsulfuron-methyl 6, ethametsulfuron-methyl 16, imazapyr isopropylamine salt 15, aclonifen 1200
Source text: as §1, §2

Viola arvensis = test: Test H weed control, field plots; format: in vivo; design: concentration or dose not given beside the values; settings: 36 days after treatment; g a.i./ha: tribenuron-methyl 22.5, metsulfuron-methyl 6, ethametsulfuron-methyl 16, imazapyr isopropylamine salt 15, aclonifen 1200
Source text: as §1, §2

[3] = tested on: Weeds Agronomically Important in Sunflower Crops; test: Test H summary; format: in vivo; settings: tribenuron-methyl 22.5 g a.i./ha, metsulfuron-methyl 6 g a.i./ha
Source text: as §1, §2

COC(=O)c1ccccc1S(=O)(=O)NC(=O)Nc1nc(C)nc(OC)n1 [Metsulfuron-methyl, metsulfuron-methyl]
tolerance of homozygous resistant inbred lines I, J, K [1]: resistant
sunflower phytotoxicity ([2]; in vivo): more likely to cause sunflower phytotoxicity
weed control, visual rating: Chenopodium album (Chenopodium album): 100%
weed control, visual rating: Stellaria media (Stellaria media): 100%
weed control, visual rating: Amaranthus retroflexus (Amaranthus retroflexus): 99%
weed control, visual rating: Anagallis arvensis (Anagallis arvensis): 100%
weed control, visual rating: Atriplex patula (Atriplex patula): 100%
weed control, visual rating: Capsella bursa pastoris (Capsella bursa pastoris): 100%
weed control, visual rating: Echinochloa crus-galli (Echinochloa crus-galli): 47%
weed control, visual rating: Matricaria inodora (Matricaria inodora): 100%
weed control, visual rating: Mercurialis annua (Mercurialis annua): 100%
weed control, visual rating: Polygonum aviculare (Polygonum aviculare): 100%
weed control, visual rating: Polygonum convolvulus (Polygonum convolvulus): 92%
weed control, visual rating: Polygonum persicaria (Polygonum persicaria): 100%
weed control, visual rating: Setaria viridis (Setaria viridis): 47%
weed control, visual rating: Sinapis arvensis (Sinapis arvensis): 100%
weed control, visual rating: Solanum nigrum (Solanum nigrum): 97%
weed control, visual rating: Viola arvensis (Viola arvensis): 100%
weed control spectrum [3]: excellent broad-spectrum weed control

COC(=O)c1ccccc1S(=O)(=O)NC(=O)N(C)c1nc(C)nc(OC)n1 [Tribenuron-methyl, tribenuron-methyl]
tolerance of homozygous resistant inbred lines I, J, K [1]: resistant
weed control, visual rating: Chenopodium album (Chenopodium album): 100%
weed control, visual rating: Stellaria media (Stellaria media): 100%
weed control, visual rating: Amaranthus retroflexus (Amaranthus retroflexus): 93%
weed control, visual rating: Anagallis arvensis (Anagallis arvensis): 100%
weed control, visual rating: Atriplex patula (Atriplex patula): 100%
weed control, visual rating: Capsella bursa pastoris (Capsella bursa pastoris): 100%
weed control, visual rating: Echinochloa crus-galli (Echinochloa crus-galli): 65%
weed control, visual rating: Matricaria inodora (Matricaria inodora): 100%
weed control, visual rating: Mercurialis annua (Mercurialis annua): 100%
weed control, visual rating: Polygonum aviculare (Polygonum aviculare): 90%
weed control, visual rating: Polygonum convolvulus (Polygonum convolvulus): 93%
weed control, visual rating: Polygonum persicaria (Polygonum persicaria): 100%
weed control, visual rating: Setaria viridis (Setaria viridis): 65%
weed control, visual rating: Sinapis arvensis (Sinapis arvensis): 100%
weed control, visual rating: Solanum nigrum (Solanum nigrum): 100%
weed control, visual rating: Viola arvensis (Viola arvensis): 100%
weed control spectrum [3]: excellent broad-spectrum weed control

COC(=O)c1cccc(C)c1S(=O)(=O)NC(=O)Nc1nc(OCC(F)(F)F)nc(N(C)C)n1 [Triflusulfuron-methyl, triflusulfuron-methyl]
sunflower phytotoxicity ([2]; Test E rates): transitory phytotoxicity symptoms
Injury ([2]; post-emergence 18.75 g a.i./ha at T2): 0%
